{"source": "patent US20210121482A1", "about": "“WITHANOLIDES FOR THE TREATMENT OF CACHEXIA” (University of Louisville Research Foundation, Inc., priority 2019, published 2021)", "key": {"SKOV3": {"system": "SKOV3", "conditions": "SKOV3 cells; cited from earlier work"}, "[1]": {"system": "ovarian cancer-induced cachexia", "assay": "Grip strength, tumor-free and tumor-bearing mice (Example 2)", "format": "in vivo", "conditions": "terminal week", "description": "Grip Strength Measurements: Before assessment, mice were weighed on a commercially available digital scale. Forepaw and total grip strength of mice were measured using a digital grip strength meter (Columbus Instruments, Columbus, Ohio, USA) and then normalized by total body weight. Before the beginning of the test, the mice were acclimatized for five minutes. The mouse was allowed to grasp the total paw pull-bar assembly, and in a separate experiment the forepaw pull-bar assembly. The mouse was then gently drawn with constant force in a straight line away from the device until the mouse could no longer grasp the bar. Force at time of release was recorded as the peak tension. Each mouse was tested five times with a delay of 20-40 seconds between each testing. The mean peak tension was calculated from the recordings normalized by total body weight.\nGrip Strength Measurements: as in Example 1."}, "A2780 cells": {"system": "A2780 cells", "assay": "Free peritoneal tumor weight (Example 1)", "format": "in vivo, mice", "conditions": "2 and 6 mg/kg, vs vehicle treated group", "excerpt": "Free peritoneal tumors (visible tumors) not associated with an organ were collected and weighed to assess WFA effects. […] At the time of euthanization and tissue collection, tumors associated with the intestines were found most frequently in the vehicle treated group and were of the largest size."}}}
{"smiles": "CC1=C(CO)C(=O)O[C@@H]([C@@H](C)[C@H]2CC[C@H]3[C@@H]4C[C@H]5O[C@]56[C@@H](O)C=CC(=O)[C@]6(C)[C@H]4CC[C@]23C)C1", "note": "[WFA, (4β,5β,6β,22R)-4,27-Dihydroxy-5,6:22,26-diepoxyergosta-2,24-diene-1,26-dione]", "values": [{"measurement": "cell cycle arrest and apoptosis", "setting": "SKOV3", "value": "induces cell cycle arrest and the induction of apoptosis"}, {"measurement": "forelimb and total grip strengths", "setting": "[1]; tumor-bearing mice, 2 and 4 mg/kg, vs tumor-bearing vehicle", "value": "significantly increased compared to the tumor-bearing vehicle-treated"}, {"measurement": "total grip strength", "setting": "[1]; tumor-free mice, 4 mg/kg, vs tumor-free vehicle", "value": "significantly improved the total grip strength of the tumor-free mice"}, {"measurement": "forelimb grip strength", "setting": "[1]; tumor-free mice, 2 and 4 mg/kg, vs tumor-free vehicle", "value": "significantly improved the forelimb grip strength of tumor-free mice"}, {"measurement": "weight of free peritoneal tumors", "setting": "A2780 cells", "value": "significantly reduced the size of peritoneal tumors"}, {"measurement": "tumors associated with the intestines", "setting": "A2780 cells; at tissue collection", "value": "fewer and smaller tumors"}]}
